Test results: PMC9502272, “A Metabolomics Approach for Predicting OATP1B-Type Transporter-Mediated Drug–Drug Interaction Liabilities” (Pharmaceutics, 2022)
Read-outs that look alike come from different tables or passages of the source.

Experiments:
[1] = design: method as in ref PMIDs of Table S2 (18321482, 35456528, 28612269, 10997930, 27796539, 23299792, 11129729, 22808947, 12844327); details: ref PMIDs of Table S2 (18321482, 35456528, 28612269, 10997930, 27796539, 23299792, 11129729, 22808947, 12844327); cited from earlier work
[2] = tested on: OATP1B; assay: Clinical study: OATP1B biomarkers in patients receiving cabazitaxel; type: in vivo, human; details: cabazitaxel 1 h i.v. infusion up to 25 mg/m^2
Excerpt: Samples from patients with solid tumors were collected from 3 clinical studies conducted in accordance with the principles of the Declaration of Helsinki, and all study protocols were approved by Institutional Review Boards at either the National Cancer Institute (Bethesda, MD, USA) or the Erasmus Medical Center Cancer Institute (Rotterdam, The Netherlands). All patients provided written informed consent for their blood samples and medical information to be used for research purposes.
An Accucore aQ column (50 × 2.1 mm, dp = 2.6 μm; Thermo Fisher Scientific) was protected by a C18 AQUASIL guard cartridge (2.1 mm × 10 mm, dp = 3 μm; Thermo Fisher Scientific). The injection volume of sample was 5.0 μL. The temperature of the autosampler rack was 4 °C, and the temperature of the column was maintained at 20 °C. The mobile phase was composed of solvent A (2 mmol ammonium acetate in water) and solvent B (100% methanol), and the total run time was 4.6 min. The gradient conditions were as follows: 0–0.5 min, 45% B; 0.5–2.0 min, 45 to 90%, 2.0–4.0 min, 90% B; 4.0–4.6 min, 45% B, delivered at a flow rate of 0.4 mL/min. The MS assay setting with the positive voltage applied to the ESI capillary was set at 3791 V, and the capillary temperatures was 335 °C with a vaporizer temperature of 350 °C. […] The lower limit of quantitation (LLOQ) for both analytes was determined to be 0.5 ng/mL. […]

[3] = target: T1, Oatp1b2 (Mus musculus, UniProt Q9JJL3); details: in vivo
T1 sequence (Q9JJL3 1-689): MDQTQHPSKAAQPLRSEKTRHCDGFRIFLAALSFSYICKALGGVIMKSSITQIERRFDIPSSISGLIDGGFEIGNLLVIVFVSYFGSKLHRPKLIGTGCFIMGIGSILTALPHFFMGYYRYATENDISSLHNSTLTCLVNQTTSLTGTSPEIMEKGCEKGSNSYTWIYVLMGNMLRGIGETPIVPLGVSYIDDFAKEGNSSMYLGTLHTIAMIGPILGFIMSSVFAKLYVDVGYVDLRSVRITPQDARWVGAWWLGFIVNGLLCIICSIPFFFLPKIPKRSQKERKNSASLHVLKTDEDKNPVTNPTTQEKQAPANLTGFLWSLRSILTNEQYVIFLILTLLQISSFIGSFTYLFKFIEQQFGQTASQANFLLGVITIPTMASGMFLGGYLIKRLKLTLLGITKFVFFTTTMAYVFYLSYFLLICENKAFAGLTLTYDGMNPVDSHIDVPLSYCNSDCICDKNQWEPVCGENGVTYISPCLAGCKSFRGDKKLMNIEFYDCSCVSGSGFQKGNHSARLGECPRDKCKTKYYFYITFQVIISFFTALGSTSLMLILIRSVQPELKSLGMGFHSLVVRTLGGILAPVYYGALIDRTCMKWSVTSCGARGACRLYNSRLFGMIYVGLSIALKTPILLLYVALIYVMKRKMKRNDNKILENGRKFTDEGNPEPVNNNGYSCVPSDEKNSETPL
Method: (§1) For all experiments, age- and sex-matched mice (8–12 weeks old) were used. […] Mice with a deficiency of Oatp1b2 (Oatp1b2(−/−) mice), the single murine orthologue of OATP1B1 and OATP1B3 in humans, on a DBA/1LacJ background were kindly provided by Drs. Richard B. Kim (Western University, London, Ontario, Canada) and Jeffrey L. Stock (Pfizer, Groton, CT, USA).
(§2) Plasma samples from untreated wild-type mice and Oatp1b2(−/−) mice were analyzed for structurally named and unknown molecules using a non-targeted semi-quantitative liquid chromatography-tandem mass spectrometry (LC-MS/MS) and gas chromatography-mass spectrometry platforms (Metabolon, Durham, NC, USA). Compounds were identified by comparison with library entries of purified standards or recurrent unknown entities.

[4] = target: T1, Oatp1b2; assay: Untargeted metabolomics of plasma from untreated wild-type and Oatp1b2(−/−) mice; details: for Fold of Change KO/WT: plasma of untreated Oatp1b2-deficient (KO) vs wild-type (WT) mice, semi-quantitative, positive = higher in KO, n = 6 per group; for Mean value KO: plasma of untreated Oatp1b2-deficient mice; for Mean value KO / Mean value WT: raw area counts rescaled to median = 1; for Mean value WT: plasma of untreated wild-type mice
Method: as §1, §2

[5] = tested on: Oatp1a/1b; assay: Baseline plasma biomarker levels in Oatp1a/1b(−/−) cluster-knockout vs wild-type mice; type: in vivo, mouse
Method: Plasma concentrations of levels of CDCA-24G and glycochenodeoxycholate-3-sulfate (GCDCA-S) were determined using LC-MS/MS using a Vanquish UHPLC coupled with a Quantiva triple quadrupole mass spectrometer (Thermo Fisher Scientific, Waltham, MA, USA). An Accucore aQ column (50 × 2.1 mm, dp = 2.6 μm; Thermo Fisher Scientific) was protected by a C18 AQUASIL guard cartridge (2.1 mm × 10 mm, dp = 3 μm; Thermo Fisher Scientific). The injection volume of sample was 5.0 μL. The temperature of the autosampler rack was 4 °C, and the temperature of the column was maintained at 20 °C. The mobile phase was composed of solvent A (2 mmol ammonium acetate in water) and solvent B (100% methanol), and the total run time was 4.6 min. The gradient conditions were as follows: 0–0.5 min, 45% B; 0.5–2.0 min, 45 to 90%, 2.0–4.0 min, 90% B; 4.0–4.6 min, 45% B, delivered at a flow rate of 0.4 mL/min. The MS assay setting with the positive voltage applied to the ESI capillary was set at 3791 V, and the capillary temperatures was 335 °C with a vaporizer temperature of 350 °C. Argon was used as the collision gas at a pressure of 1.5 mTorr. Precursor molecular ions, and product ions were recorded for the confirmation and detection of GCDCA-S (528.4 > 448.3) and CDCA-24G (567.4 > 391.1), using [^2H5]-GCDCA-S (535.5 > 453.3) and [^2H5]-CDCA-24G (572.5 > 396.1) as respective internal standards. The lower limit of quantitation (LLOQ) for both analytes was determined to be 0.5 ng/mL. […]
Plasma concentrations of coproporphyrin I (CP-I) and III (CP-III) were determined similarly by LC-MS/MS. […] Precursor molecular ions and product ions were recorded for confirmation and detection of CP-I (655.4 > 596.4) and CP-III (655.4 > 596.3), using [^2H4]-CP-III (659.4 > 600.3) as the internal standard for both analytes. The LLOQ for both analytes were determined to be 1 ng/mL, and the within-run and between-run precisions as well as the accuracy were always within acceptable limits.

Molecule | Fold of Change KO/WT [4] | Mean value KO [4] | Mean value WT [4] | also measured
CO[C@H]1C(=O)[C@]2(C)[C@@H](OC)C[C@H]3OC[C@@]3(OC(C)=O)[C@H]2[C@H](OC(=O)c2ccccc2)[C@]2(O)C[C@H](OC(=O)[C@H](O)[C@@H](NC(=O)OC(C)(C)C)c3ccccc3)C(C)=C1C2(C)C [Cabazitaxel, cabazitaxel] |  |  |  | Cmax [1]: 193 nM; Effect on plasma levels of CDCA-24G [2]: not associated with elevated plasma levels; Effect on plasma levels of GCDCA-S [2]: not associated with elevated plasma levels
C[N+](C)(C)[C@@H](Cc1cnc[nH]1)C(=O)[O-] [histidine betaine (hercynine)] |  |  |  | Fold of Change KO/WT [3]: 1.31; Mean value KO [3]: 1.09; Mean value WT [3]: .830
C[C@H](CCC(=O)O)[C@H]1CC[C@H]2[C@@H]3[C@@H](O)C[C@@H]4C[C@H](O)CC[C@]4(C)[C@H]3CC[C@]12C [ursodeoxycholate] | 4.07 | 2.16 | .530 | 
chenodeoxycholic acid sulfate (1) | 6.41 | 1.02 | .160 | 
coproporphyrin I [CP-I] |  |  |  | Observed changes in plasma levels in Oatp1a/1b(−/−), OATP1B1(tg) or OATP1B3(tg) mice vs wild type, compared with CDCA-24G [5]: much more modest
coproporphyrin III [CP-III] |  |  |  | Observed changes in plasma levels in Oatp1a/1b(−/−), OATP1B1(tg) or OATP1B3(tg) mice vs wild type, compared with CDCA-24G [5]: much more modest
dodecenedioate (C12:1-DC) | 3.94 | 2.14 | .543 | 
eicosenamide (20:1) | 1.43 | 1.27 | .885 | 
eicosenedioate (C20:1-DC) | 5.36 | 1.80 | .335 | 
enterolactone sulfate | 3.42 | 1.63 | .478 | 
octadecadienedioate (C18:2-DC) | 3.48 | 1.88 | .540 | 
octadecenedioate (C18:1-DC) | 2.66 | 1.45 | .544 | 
sphingomyelin (d18:1/14:0, d16:1/16:0) |  |  | .930 | 
sphingomyelin (d18:2/16:0, d18:1/16:1) |  |  | .940 | 
taurocholenate sulfate |  | 1.08 | .838 | 
tauroursodeoxycholic acid sulfate (2) | 2.18 | 1.12 | .513 | 
tetradecadienedioate (C14:2-DC) | 2.09 | 1.58 | .756 | 

Further lines, with some results ahead:

Fold of Change KO/WT [4] | Mean value KO [4] | Mean value WT [4] | Molecule | also measured
33.8 | 5.10 | .151 | C[C@H](CCC(=O)O)[C@H]1CC[C@H]2[C@@H]3[C@@H](O)C[C@@H]4C[C@H](O)CC[C@]4(C)[C@H]3C[C@H](O)[C@]12C [ursocholate] | 
1.53 | 1.28 | .838 | CCCCC(=O)NCC(=O)O [valerylglycine] | 
2.03 | 1.44 | .707 | Cc1c(C)c2c(c(C)c1O)CC[C@@](C)(CCC[C@H](C)CCC[C@H](C)CCCC(C)C)O2 [α-tocopherol] | 
 |  | .931 | (N(1) + N(8))-acetylspermidine | 
1.72 | 1.37 | .795 | dihomo-linolenoylcarnitine (C20:3n3 or 6) | 
1.46 | 1.27 | .869 | eicosadienamide (20:2) | 
1.90 | 1.35 | .709 | equol glucuronide | 
2.58 | 1.62 | .626 | equol sulfate | 
1.37 | 1.29 | .939 | heptadecenamide (17:1) | 
3.61 | 1.62 | .448 | hexadecenedioate (C16:1-DC) | 
1.91 | 1.51 | .794 | linolenoylcarnitine (C18:3) | 
1.39 | 1.27 | .917 | nonadecenamide (19:1) | 
12.7 | 2.35 | .185 | octadecenedioylcarnitine (C18:1-DC) | 
2.14 | 1.16 | .540 | pregnenediol disulfate (C21H34O8S2) | 
1.32 | 1.02 | .769 | sphingomyelin (d17:1/14:0, d16:1/15:0) | 
1.36 | 1.14 | .839 | sphingomyelin (d18:2/14:0, d18:1/14:1) | 
